PubChem BioAssay AID732 (Emory University Molecular Libraries Screening Center, 2007)
Values joined by “and” are separate entries in the source; they are usually repeats but may differ in a detail not shown here. Equal entries are not always repeated. Active and inactive are the calls of the source. The rule behind the calls is not given here.

system: in vivo angiogenesis, blood vessel count; assay: reduction of blood vessel formation in vivo – HTS, in vivo study (AID 732); settings: stronger effect = lower value;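 tested at 30 µM in the well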;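 note: zebrafish embryos dosed at one day post fertilization; 0% = reference inhibitor and 100% = plate mean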

Row | SMILES | vessel count % control
1 | O=C1C(c2c(O)[nH]c3ccc(Cl)cc23)=Nc2ccccc21 | 87.6% (inactive)
2 | O=C1Cc2c([nH]c3ccc(Br)cc23)-c2ccccc2N1 | 101% (inactive)
3 | O=NN(CCCl)C(=O)NCCCl | 96.9% (inactive)
4 | CN1CCN(C2=Nc3cc(Cl)ccc3Nc3ccccc32)CC1 | 98.7% (inactive)
5 | CCCN(CCC)C1CCc2ccc(O)cc2C1 (stereo unspecified) | 87.6% (inactive)
6 | Cn1c(=O)c2[nH]c(-c3ccc(S(=O)(=O)O)cc3)nc2n(C)c1=O | 106% (inactive)
7 | Oc1[nH]c2c(Cl)cc(Cl)cc2c1C1=Nc2ccc(Br)cc2/C1=N\OCCBr | 121% (inactive)
8 | Cc1c(OCC(F)(F)F)ccnc1CS(=O)c1nc2ccccc2[nH]1 (stereo unspecified) | 76.7% (inactive)
9 | NC(=O)CC[C@H](N)C(=O)O | 104% (inactive)
10 | CC[C@H]1CN2CCc3cc(OC)c(OC)cc3[C@@H]2C[C@@H]1C[C@H]1NCCc2cc(OC)c(OC)cc21 | 103% (inactive)
11 | CC(C)(C)NCC(O)COc1cccc2[nH]c(=O)[nH]c12 (stereo unspecified) | 103% (inactive)
12 | NC(N)=NCCCCN=C(N)N | 88% (inactive)
13 | CCCN1CCC[C@@H]2Cc3nc(N)ncc3C[C@H]21 | 107% (inactive)
14 | COc1cc(/C=C(\C#N)C(=O)c2ccc(O)c(O)c2)cc(I)c1O | 94.3% (inactive)
15 | CC(C)C[C@H](NC(=O)C1OC1C(=O)O)C(=O)NCCCCN=C(N)N (stereo partly specified) | 108% (inactive)
16 | Cc1ccc(S(=O)(=O)N[C@@H](Cc2ccccc2)C(=O)CCl)cc1 | 97.1% (inactive)
17 | N=C(N)SCCc1ccc(CCSC(=N)N)cc1 | 72.6% (inactive)
18 | CC(C)(C)c1ccc(S(=O)(=O)/C=C/C#N)cc1 | 0% (inactive)
19 | COc1c2c(nc3ccccc13)OC(C(C)(O)CO)C2 (stereo unspecified) | 120% (inactive)
20 | CN(C)c1nc(N(C)C)nc(N(C)C)n1 | 86% (inactive)
21 | CN1C(=O)CC[C@H]1c1cccnc1 | 110% (inactive)
22 | C[N+](C)(C)CCCCCCCCCC[N+](C)(C)C | 100% (inactive)
23 | COc1cc2c(c(OC)c1OC)-c1ccc(OC)c(=O)cc1[C@@H](NC(C)=O)CC2 | 116% (inactive)
24 | COc1ccc2[nH]cc(CCN)c2c1 | 108% (inactive)

Row | SMILES | vessel count % control
25 | CCCN1CCc2cccc3c2[C@H]1Cc1ccc(O)c(O)c1-3 | 89.9% (inactive)
26 | O=P(O)(O)C(Cl)(Cl)P(=O)(O)O | 110% (inactive)
27 | O=[N+]([O-])c1cccc2cn[nH]c12 | 136% (inactive)
28 | COc1ccc(C(=O)NCc2cccnc2)cc1C(=O)NCc1cccnc1 | 109% (inactive)
29 | CCn1cc(C(=O)O)c(=O)c2ccc(C)nc21 | 135% (inactive)
30 | COc1[nH]c2ccc(F)cc2c1C(=O)OCC1CCN(CCNS(C)(=O)=O)CC1 | 99.6% (inactive)
31 | O=C1NCN(c2ccccc2)C12CCN(CCCC(c1ccc(F)cc1)c1ccc(F)cc1)CC2 | 84.4% (inactive)
32 | C[C@@H](Oc1ccc(Oc2cnc3ccc(Cl)cc3n2)cc1)C(=O)O | 80.3% (inactive)
33 | CN1CCC23CCCC[C@H]2C1Cc1ccc(O)cc13 (stereo partly specified) | 100% (inactive)
34 | CN1C2CCC1CC(OC(=O)C(CO)c1ccccc1)C2 (stereo unspecified) | 120% (inactive) and 116% (inactive)
35 | COc1ccc(CN(CCN(C)C)c2ccccn2)cc1 | 106% (inactive)
36 | COc1ccc(Cc2nccc3cc(OC)c(OC)cc23)cc1OC | 110% (inactive)
37 | COC(=O)c1cc2c(cn1)[nH]c1ccccc12 | 92.7% (inactive)
38 | CC(=O)SCC[N+](C)(C)C | 99% (inactive)
39 | C[N+]1(C)C2CCC1CC(OC(=O)C(CO)c1ccccc1)C2 (stereo unspecified) | 77.4% (inactive) and 108% (inactive)
40 | C=CC1(C)CC(=O)C2(O)C(C)(O1)C(OC(C)=O)C(O)C1C(C)(C)CCC(O)C12C (stereo unspecified) | 97% (inactive)
41 | NCCCNCCSP(=O)(O)O | 93.3% (inactive)
42 | S=C(S)N1CCCC1 | 73.2% (inactive)
43 | C1CCc2nnnn2CC1 | 79% (inactive)
44 | COc1cc2nc(N3CCN(C(=O)C4CCCO4)CC3)nc(N)c2cc1OC (stereo unspecified) | 83.3% (inactive)
45 | CC(NC(C)(C)C)C(=O)c1cccc(Cl)c1 (stereo unspecified) | 71.1% (inactive)
46 | CCCC(=O)NCCc1c2n(c3ccc(OC)cc13)CCCc1ccccc1-2 | 92.5% (inactive)
47 | CC(=O)NCCc1ccc(O)c(O)c1 | 105% (inactive)
48 | NCCCCCCCCCCN | 146% (inactive)

Row | SMILES | vessel count % control
49 | Clc1cc(I)cc(Cl)c1NC1=NCCN1 | 80.6% (inactive)
50 | CN1CCC(=C2c3ccccc3C=Cc3ccccc32)CC1 | 0% (inactive)
51 | CC(N)(C(=O)O)c1ccc(C(=O)O)cc1 (stereo unspecified) | 93.5% (inactive)
52 | CCN(CC)CC#CCOC(=O)C(O)(c1ccccc1)C1CCCCC1 (stereo unspecified) | 125% (inactive)
53 | O=S1(=O)N(CCN2CC=C(c3c[nH]c4cc(F)ccc34)CC2)c2cccc3c2N1CCC3 | 148% (inactive)
54 | CC1=C(CC(=O)O)c2cc(F)ccc2/C1=C\c1ccc(S(C)(=O)=O)cc1 | 112% (inactive)
55 | C[C@H]1c2cccc(O)c2C(O)=C2C(=O)[C@]3(O)C(O)=C(C(N)=O)C(=O)[C@@H](N(C)C)[C@@H]3[C@@H](O)[C@@H]21 | 91.8% (inactive)
56 | O=C(O)CC[N+](=O)[O-] | 87.6% (inactive)
57 | N#C/C(=C\c1ccc(O)c(O)c1)C(=O)NCCCc1ccccc1 | 137% (inactive)
58 | N=C(N)SCCc1cccc(CCSC(=N)N)c1 | 106% (inactive)
59 | CCN(CC)CCOC(=O)c1cc(Cl)c(N)cc1OC | 114% (inactive)
60 | CC#CCOC(=O)c1c(C)nc2sc3c(c2c1N)CCC(O)C3 (stereo unspecified) | 116% (inactive)
61 | CC(C)OC(=O)C(C)(C)Oc1ccc(C(=O)c2ccc(Cl)cc2)cc1 | 89.2% (inactive)
62 | CCCCC[C@H](CC(=O)NO)C(=O)N[C@H](C(=O)N1CCC[C@H]1CO)C(C)C | 103% (inactive)
63 | COc1ccc2[nH]c(I)c(CCNC(C)=O)c2c1 | 107% (inactive)
64 | NC(Cc1cccc(-c2ccccc2CP(=O)(O)O)c1)C(=O)O (stereo unspecified) | 106% (inactive)
65 | COc1cc(=O)n(C)c2c(OCC(O)C(C)(C)O)cccc12 (stereo unspecified) | 75.4% (inactive)
66 | CN(C)[C@@H]1C(=O)C(C(N)=O)=C(O)[C@@]2(O)C(=O)C3=C(O)c4c(O)ccc(Cl)c4[C@@H](O)[C@H]3C[C@@H]12 | 87.7% (inactive)
67 | CC[C@@H]1Cc2cc(O)ccc2C2=C1c1ccc(O)cc1C[C@H]2CC | 99.8% (inactive)
68 | C/C=C(/C)C(=O)O[C@H]1C(C)=C2[C@H]([C@@H]1OC(=O)CCCCCCC)[C@@](C)(OC(C)=O)C[C@H](OC(=O)CCC)[C@@]1(O)[C@H]2OC(=O)[C@@]1(C)O | 0% (inactive)
69 | C[C@@H]1O[C@H](C[N+](C)(C)C)C[C@H]1O | 104% (inactive)
70 | Nc1nc2ccc(Cl)cc2c2nc(-c3ccco3)nn12 | 95.7% (inactive)
71 | C[C@@H](N)Cc1cnc[nH]1 | 97.8% (inactive)
72 | COc1cc2nc(N3CCN(C(=O)c4ccco4)CC3)nc(N)c2cc1OC | 107% (inactive)

Row | SMILES | vessel count % control
73 | CCOC(=O)c1ncn2c1[C@@H]1CCCN1C(=O)c1cc(OC)ccc1-2 | 102% (inactive)
74 | CC(C)(C=O)Cc1cc(C(C)(C)C)c(O)c(C(C)(C)C)c1 | 98.1% (inactive)
75 | Cc1cc(O)c2c(c1)C(=O)c1cc(O)cc(O)c1C2=O | 87.5% (inactive)
76 | CN[C@H](CC(C)C)C(=O)N[C@H]1C(=O)N[C@@H](CC(N)=O)C(=O)N[C@H]2C(=O)N[C@H]3C(=O)N[C@H](C(=O)N[C@H](C(=O)O)c4cc(O)cc(O)c4-c4cc3ccc4O)[C@H](O)c3ccc(c(Cl)c3)Oc3cc2cc(c3O[C@@H]2O[C@H](CO)[C@@H](O)[C@H](O)[C@H]2O[C@H]2C[C@](C)(N)[C@H](O)[C@H](C)O2)Oc2ccc(cc2Cl)[C@H]1O | 103% (inactive)
77 | NC(N)=NC(=O)c1nc(Cl)c(N)nc1N | 117% (inactive)
78 | Nc1ccc(S(=O)(=O)Nc2ccnn2-c2ccccc2)cc1 | 122% (inactive)
79 | O=c1onc2cnc3ccccc3n12 | 95.4% (inactive)
80 | NCCCCNS(=O)(=O)c1cccc2c(Cl)cccc12 | 107% (inactive)
81 | CN(C)CCOC(C)(c1ccccc1)c1ccccn1 (stereo unspecified) | 95.7% (inactive)
82 | CCN(CC)CCCCCCCCOC(=O)c1cc(OC)c(OC)c(OC)c1 | 91.4% (inactive)
83 | CCCCCCCCCCCCCCCC(=O)NCC(COP(=O)([O-])OCC[N+](C)(C)C)OCC (stereo unspecified) | 115% (inactive)
84 | Cc1ccc([N+](=O)[O-])cc1S(=O)(=O)N(C)C | 108% (inactive)
85 | CNCCc1ccc(O)c(O)c1 | 96.5% (inactive)
86 | CCN(CC)c1ncnc2c1ncn2[C@@H]1O[C@H](COP(=O)(O)OP(=O)(O)C(Br)(Br)P(=O)(O)O)[C@@H](O)[C@H]1O | 81.9% (inactive)
87 | CC[C@H](NC(=O)c1c(C)c(-c2ccccc2)nc2ccccc12)c1ccccc1 | 126% (inactive)
88 | O=Nc1c(-c2c(O)[nH]c3ccc(S(=O)(=O)O)cc23)[nH]c2ccccc12 | 92.9% (inactive)
89 | CN1[C@@H](CC(=O)c2ccccc2)CCC[C@H]1C[C@H](O)c1ccccc1 | 107% (inactive)
90 | O=C(O)CCC(NC(=O)c1ccccc1C(=O)O)C(=O)O (stereo unspecified) | 103% (inactive)
91 | O=C(O)c1cc(=O)c2ccc(Cl)cc2[nH]1 | 110% (inactive)
92 | N[C@@H](Cn1ccc(=O)[nH]c1=O)C(=O)O | 102% (inactive)
93 | NC(=NCc1ccc(Cl)c(Cl)c1)NC(=O)c1nc(Cl)c(N)nc1N | 108% (inactive)
94 | NCCCC(=O)O | 109% (inactive)
95 | CCCc1c(OCCCOc2ccc(OCC(=O)O)cc2)ccc(C(C)=O)c1O | 92.9% (inactive)
96 | NC(N)=[N+]1CCc2ccccc2C1 | 113% (inactive)
